Assay results taken from ChEMBL document CHEMBL1138128, “Phenolic P2/P3 core motif as thrombin inhibitors--design, synthesis, and X-ray co-crystal structure” (Bioorg Med Chem Lett, 2006).

Key:
[1] = target: Trypsin (Homo sapiens, UniProt P07477+P07478+P35030); assay: Inhibitory activity against trypsin; type: protein assay
[2] = target: Prothrombin (Homo sapiens, UniProt P00734); assay: Inhibitory activity against thrombin

SMILES | IC50 [1] | IC50 [2]
Cc1ccnc(CNC(=O)Cc2c(C)ccc(NS(=O)(=O)c3cccc(Cl)c3)c2O)c1F | > 44000 nM | 14000 nM
Cc1ccnc(CNC(=O)Cc2c(C)ccc(NCS(=O)(=O)c3cccc(Cl)c3)c2O)c1F | > 44000 nM | 15000 nM
Cc1ccc(S(=O)(=O)Nc2ccc(C)c(CC(=O)NCc3nccc(C)c3F)c2O)cc1Cl | > 44000 nM | 20000 nM
COc1cccc(S(=O)(=O)Nc2ccc(C)c(CC(=O)NCc3ccc(C(=N)N)cc3)c2O)c1.Cl | 280 nM | 16 nM
Cc1ccc(NCC(=O)c2ccccc2)c(O)c1CC(=O)NCc1ccc(C(=N)N)cc1.Cl | 4000 nM | 4700 nM
Cc1ccc(NS(=O)(=O)c2cc(Cl)ccc2Cl)c(O)c1CC(=O)NCc1ccnc(N)c1.Cl | > 44000 nM | 1000 nM
Cc1ccc(NCS(=O)(=O)c2ccccc2)c(O)c1CC(=O)NCc1ccc(N)nc1C.Cl | > 44000 nM | 570 nM
Cc1ccc(NCNC(=O)c2ccccc2)c(O)c1CC(=O)NCc1ccc(C(=N)N)cc1.Cl | 2700 nM | 2400 nM
Cc1ccc(NS(=O)(=O)c2cccc3ccccc23)c(O)c1CC(=O)NCc1ccc(C(=N)N)cc1.Cl | 1100 nM | 
Cc1ccc(S(=O)(=O)Nc2ccc(C)c(CC(=O)NCc3ccc(N)nc3C)c2O)cc1F.Cl | > 44000 nM | 590 nM
Cc1ccc(NS(=O)(=O)c2ccccc2Cl)c(O)c1CC(=O)NCc1ccnc(N)c1.Cl | > 44000 nM | 3000 nM

Further lines, results first:

IC50 [1] | IC50 [2] | SMILES
600 nM | 97 nM | Cc1ccc(NS(=O)(=O)c2ccccc2)c(O)c1CC(=O)NCc1ccc(C(=N)N)cc1.Cl
2800 nM | 120 nM | Cc1ccc(NS(=O)(=O)c2cccc(C(F)(F)F)c2)c(O)c1CC(=O)NCc1ccc(C(=N)N)cc1.Cl
3100 nM | 190 nM | Cc1ccc(NCS(=O)(=O)c2ccccc2)c(O)c1CC(=O)NCc1ccc(C(=N)N)cc1.Cl
110 nM | 25 nM | Cc1ccc(C)c(S(=O)(=O)Nc2ccc(C)c(CC(=O)NCc3ccc(C(=N)N)cc3)c2O)c1.Cl
940 nM | 130 nM | Cc1ccc(NS(=O)(=O)c2ccc(Cl)cc2)c(O)c1CC(=O)NCc1ccc(C(=N)N)cc1.Cl
680 nM | 82 nM | Cc1ccc(NS(=O)(=O)c2ccc(Cl)cc2F)c(O)c1CC(=O)NCc1ccc(C(=N)N)cc1.Cl
1100 nM | 250 nM | Cc1ccc(S(=O)(=O)Nc2ccc(C)c(CC(=O)NCc3ccc(C(=N)N)cc3)c2O)cc1.Cl
> 44000 nM | 190 nM | Cc1ccc(NS(=O)(=O)c2cccc(Cl)c2C)c(O)c1CC(=O)NCc1ccc(N)nc1C.Cl
910 nM | 50 nM | COc1ccc(S(=O)(=O)Nc2ccc(C)c(CC(=O)NCc3ccc(C(=N)N)cc3)c2O)cc1.Cl
> 44000 nM | 260 nM | Cc1ccccc1S(=O)(=O)Nc1ccc(C)c(CC(=O)NCc2ccc(N)nc2C)c1O.Cl
340 nM | 39 nM | COc1ccc(S(=O)(=O)Nc2ccc(C)c(CC(=O)NCc3ccc(C(=N)N)cc3)c2O)cc1OC.Cl
